Assay results published in US7160900B2, “Tetrahydropyridino or piperidino heterocyclic derivatives” (Taisho Pharmaceutical Co., Ltd., priority 2000, dated 2007).

SMILES: Cc1cc(N2CC=C(CC(N)=O)CC2)c2cccc(-c3ccc(Cl)cc3Cl)c2n1 [compound 1-05, 2-{1-[8-(2,4-dichlorophenyl)-2-methylquinolin-4-yl]-1,2,3,6-tetrahydropyridin-4-yl}-acetamide]
- melting point: 160 to 162 °C
